Among the data in PMC12133982, “Predominant T-cell epitopes of SARS-CoV-2 restricted by multiple prevalent HLA-B and HLA-C allotypes in Northeast Asia” (Frontiers in Immunology, 2025) are IC50 values, retold here.

In one assay the target is HLA-C0304 (Homo sapiens, UniProt P10321, A176E/A330V/A97T/C25G/C350S/D114A/D33Y/E197K/L119I/L127V/L171W/L218V/M285V/M309V/M331V/P208H/Q277E/Q291P/R243W/R45H/S123Y/S140Y/S297R/S48A/T118I/T187L/T329A/T363A/V319A). The experiment in a line: Competitive peptide binding assay, CIR-C0304. The conditions noted are these: HMy2.CIR-C0304 cells, reference Cy5-[…], class from inhibition at 5 and 15 μM, flow cytometry MFI; read-out: Binding affinity with HLA-C0304. As to the method: (§1) Then, competitive peptide binding assays were performed.
(A flow cytometer gives signals particle by particle.)

In another assay the target is HLA-C0303 (Homo sapiens, UniProt P10321, A176E/A330V/A97T/C25G/C350S/D114A/D33Y/E197K/G115R/L119I/L127V/L171W/L218V/M285V/M309V/M331V/P208H/Q277E/Q291P/R243W/R45H/S123Y/S140Y/S297R/S48A/T118I/T187L/T329A/T363A/V319A). The experiment in a line: Competitive peptide binding assay, CIR-C0303. As to conditions: HMy2.CIR-C0303 cells, reference Cy5-[…], class from inhibition at 5 and 15 μM, flow cytometry MFI; read-out: Binding affinity with HLA-C0303. As to the method: as §1

The next assay deals with HLA-C0602 (Homo sapiens, UniProt P10321, A176E/A330V/C350S/L171W/L180W/L218V/M285V/M309V/M331V/N104K/P208H/Q277E/Q291P/R121W/S101N/S123Y/S297R/T329A/T363A/V319A/V328M). The experiment in a line: Competitive peptide binding assay, CIR-C0602.
A further assay addresses HLA-C0102 (Homo sapiens, UniProt P10321, A176E/A330V/A35S/A97T/C350S/D114A/D33F/L171W/L180R/L218V/M285V/M309V/M331V/P208H/Q277E/Q291P/R121W/R243W/R30K/S123C/S140Y/S297R/T329A/T363A/V272M/V319A). The experiment in a line: Competitive peptide binding assay, CIR-C0102. As to conditions: HMy2.CIR-C0102 cells, reference Cy5-[…], class from inhibition at 5 and 15 μM, flow cytometry MFI; read-out: Binding affinity with HLA-C0102. As to the method: as §1

The next assay addresses HLA-C0801 (Homo sapiens, UniProt P10321, A176T/A330V/A97T/C350S/D114A/D138N/D33Y/E201K/E299G/L171W/L218V/M285V/M309V/M331V/P208H/Q277E/Q291P/R59Q/S123Y/S140F/S297R/S48A/T329A/T363A/V319A/V328M). Kind of assay: Competitive peptide binding assay, CIR-C0801. The conditions noted are these: HMy2.CIR-C0801 cells, reference Cy5-[…], class from inhibition at 5 and 15 μM, flow cytometry MFI; read-out: Binding affinity with HLA-C0801. As to the method: as §1

Another assay concerns the target HLA-C0302 (Homo sapiens, UniProt P10321, A176E/A330V/A97T/C25G/C350S/D114A/D33Y/E197K/L127V/L171W/L218V/M285V/M309V/M331V/P208H/Q277E/Q291P/R243W/R45H/S123Y/S297R/S48A/T118I/T187L/T329A/T363A/V319A). Kind of assay: Competitive peptide binding assay, CIR-C0302. As to conditions: HMy2.CIR-C0302 cells, reference Cy5-[…], class from inhibition at 5 and 15 μM, flow cytometry MFI; read-out: Binding affinity with HLA-C0302. On the procedure:
as §1

The target in another assay is HLA-C0701 (Homo sapiens, UniProt P10321, K90N/S123Y). Kind of assay: Competitive peptide binding assay, CIR-C0701. As to conditions: HMy2.CIR-C0701 cells, reference Cy5-[…], class from inhibition at 5 and 15 μM, flow cytometry MFI; read-out: Binding affinity with HLA-C 0701. On the procedure: as §1
Another assay concerns the target HLA-C0702 (Homo sapiens, UniProt P10321). The experiment in a line: Competitive peptide binding assay, CIR-C0702.
In a further assay the target is HLA-C1502 (Homo sapiens, UniProt P10321, A176E/A330V/A97T/C350S/D114A/D33Y/K90N/L119I/L171W/L218V/M285V/M309V/M331V/N104K/P208H/Q277E/Q291P/R45H/S101N/S123Y/S140L/S297R/S48A/T118I/T329A/T363A/V319A/V328M/Y137H). The experiment in a line: Competitive peptide binding assay, CIR-C1502. As to conditions: HMy2.CIR-C1502 cells, reference Cy5-[…], class from inhibition at 5 and 15 μM, flow cytometry MFI; read-out: Binding affinity with HLA-C1502. As to the method: as §1

In the next assay the target is HLA-C0401 (Homo sapiens, UniProt P10321, A176E/A330V/A35S/A73E/C25G/C350S/D138N/D33S/E299K/L171W/L180R/L218V/M285V/M309V/M331V/N104K/P208H/Q277E/Q291P/R243W/R38W/S101N/S123F/S140F/S297R/S48A/T329A/T363A/V319A/V327M). The experiment in a line: Competitive peptide binding assay, CIR-C0401. As to conditions: HMy2.CIR-C0401 cells, reference Cy5-[…], class from inhibition at 5 and 15 μM, flow cytometry MFI; read-out: Binding affinity with HLA-C0401. As to the method:
as §1

A further assay concerns the target HLA-C1402 (Homo sapiens, UniProt P10321, A176E/A330V/A35S/A97T/C350S/D114A/D33S/L171W/L180R/L218V/M285V/M309V/M331V/P208H/Q277E/Q291P/R121W/R243W/S123F/S297R/S48A/T329A/T363A/V319A). The experiment in a line: Competitive peptide binding assay, CIR-C1402. The conditions noted are these: HMy2.CIR-C1402 cells, reference Cy5-[…], class from inhibition at 5 and 15 μM, flow cytometry MFI; read-out: Binding affinity with HLA-C1402. On the procedure:
as §1

For a further assay, the target named is HLA-C1202 (Homo sapiens, UniProt P10321, A176E/A330V/C350S/D114A/D33Y/L171W/L180W/L218V/M285V/M309V/M331V/P208H/Q277E/Q291P/S123Y/S297R/S48A/T329A/T363A/V319A/V328M). The experiment in a line: Competitive peptide binding assay, CIR-C1202. The conditions noted are these: HMy2.CIR-C1202 cells, reference Cy5-[…], class from inhibition at 5 and 15 μM, flow cytometry MFI; read-out: Binding affinity with HLA-C1202. On the procedure: as §1

Peptide text beside a SMILES is read from it.

Take `CC[C@H](C)[C@H](NC(=O)[C@H](C)NC(=O)[C@H](C)NC(=O)[C@H](CC(N)=O)NC(=O)CNC(=O)[C@H](CC(=O)O)NC(=O)[C@H](CCC(N)=O)NC(=O)[C@H](C)NC(=O)[C@@H](N)Cc1ccccc1)C(=O)O` [Epitope M22] (H-FAQDGNAAI-OH; N-terminus and C-terminus assumed): the IC50 at HLA-C0304 was 5 to 15 µM; at HLA-C0303, above 15 µM; on HLA-C0602 it was above 15 µM; at HLA-C0102, above 15 µM; on HLA-C0801, below 5 µM; at HLA-C0302 it was below 5 µM. The IC50 at HLA-C0701 was above 15 µM.
`CC(C)[C@H](NC(=O)[C@@H](N)Cc1ccccc1)C(=O)N[C@@H](CO)C(=O)N[C@@H](CC(N)=O)C(=O)NCC(=O)N[C@H](C(=O)N[C@@H](Cc1c[nH]cn1)C(=O)N[C@@H](Cc1c[nH]c2ccccc12)C(=O)N[C@@H](Cc1ccccc1)C(=O)O)[C@@H](C)O` [Epitope M68] (H-FVSNGTHWF-OH; N-terminus and C-terminus assumed): the IC50 on HLA-C0702 is above 15 µM; at HLA-C1502, 5 to 15 µM; at HLA-C0602, above 15 µM; at HLA-C0801 it was above 15 µM; at HLA-C0701 it was above 15 µM.
For `C[C@H](NC(=O)[C@H](Cc1ccc(O)cc1)NC(=O)[C@H](C)NC(=O)[C@@H](N)Cc1ccccc1)C(=O)N[C@@H](CC(N)=O)C(=O)N[C@@H](CCCNC(=N)N)C(=O)N[C@@H](CC(N)=O)C(=O)N[C@@H](CCCNC(=N)N)C(=O)N[C@@H](Cc1ccccc1)C(=O)O` [Epitope M43] (H-FAYANRNRF-OH; N-terminus and C-terminus assumed), the IC50 at HLA-C0702 is 5 to 15 µM; at HLA-C0602, 5 to 15 µM; on HLA-C0401 it was above 15 µM; on HLA-C0102 it was above 15 µM; at HLA-C0701 it was below 5 µM.
In the case of `CC[C@H](C)[C@H](N)C(=O)N[C@@H](C)C(=O)N[C@@H](CCSC)C(=O)N[C@@H](C)C(=O)N[C@@H](CS)C(=O)N[C@@H](CC(C)C)C(=O)N[C@H](C(=O)NCC(=O)N[C@@H](CC(C)C)C(=O)O)C(C)C` [Epitope M44] (H-IAMACLVGL-OH; N-terminus and C-terminus assumed), the IC50 was above 15 µM on HLA-C0702; above 15 µM on HLA-C0304; above 15 µM on HLA-C0303; above 15 µM on HLA-C0602; below 5 µM on HLA-C0102; above 15 µM on HLA-C0801. The values for the IC50 on HLA-C0302 and on HLA-C0701 were below 5 µM and above 15 µM, respectively.
In the case of `CC(C)C[C@H](NC(=O)[C@H](CCC(=O)O)NC(=O)[C@H](Cc1ccccc1)NC(=O)[C@H](CO)NC(=O)[C@H](CC(C)C)NC(=O)[C@@H](NC(=O)[C@@H](NC(=O)[C@@H](NC(=O)[C@H](CCCNC(=N)N)NC(=O)[C@@H](N)Cc1ccc(O)cc1)C(C)C)C(C)C)C(C)C)C(=O)O` [Epitope M156] (H-YRVVVLSFEL-OH; N-terminus and C-terminus assumed), the IC50 at HLA-C1402 is above 15 µM; on HLA-C0304, above 15 µM; on HLA-C0303, above 15 µM; at HLA-C0102, 5 to 15 µM; at HLA-C1202, above 15 µM.
Consider `CC(C)C[C@H](NC(=O)[C@H](Cc1ccccc1)NC(=O)[C@@H](NC(=O)[C@@H](N)C(C)C)C(C)C)C(=O)N[C@@H](Cc1c[nH]cn1)C(=O)N[C@H](C(=O)N[C@H](C(=O)N[C@@H](Cc1ccc(O)cc1)C(=O)N[C@H](C(=O)O)C(C)C)[C@@H](C)O)C(C)C` [Epitope M131] (H-VVFLHVTYV-OH; N-terminus and C-terminus assumed), for which the IC50 on HLA-C0702 is above 15 µM; at HLA-C0304 it was 5 to 15 µM; at HLA-C0102 it was 5 to 15 µM; on HLA-C0302, above 15 µM; at HLA-C1202, above 15 µM.
For the compound `CSCC[C@H](NC(=O)[C@H](CO)NC(=O)[C@H](CCCNC(=N)N)NC(=O)[C@@H](NC(=O)[C@H](CCCNC(=N)N)NC(=O)[C@H](C)NC(=O)[C@@H](N)Cc1ccccc1)[C@@H](C)O)C(=O)N[C@@H](Cc1c[nH]c2ccccc12)C(=O)N[C@@H](CO)C(=O)N[C@@H](Cc1ccccc1)C(=O)O` [Epitope M71] (H-FARTRSMWSF-OH; N-terminus and C-terminus assumed), the IC50 at HLA-C0702 is 5 to 15 µM; on HLA-C0602, above 15 µM; on HLA-C0401, above 15 µM; on HLA-C0801, above 15 µM; on HLA-C0302 it was below 5 µM; on HLA-C0701, 5 to 15 µM.
On to `C[C@H](NC(=O)[C@H](CO)NC(=O)[C@H](CO)NC(=O)[C@@H](N)Cc1ccc(O)cc1)C(=O)N[C@@H](CC(N)=O)C(=O)N[C@@H](CC(N)=O)C(=O)N[C@@H](CS)C(=O)N[C@H](C(=O)N[C@@H](Cc1ccccc1)C(=O)O)[C@@H](C)O` [Epitope M64] (H-YSSANNCTF-OH; N-terminus and C-terminus assumed), for which the IC50 on HLA-C0702 was above 15 µM; at HLA-C1502 it was below 5 µM; on HLA-C0303, above 15 µM; at HLA-C0102, above 15 µM; at HLA-C0801, above 15 µM; on HLA-C0302, 5 to 15 µM.
